Laboratory results as given in patent publication US11452727B2, “Combination therapy for treating cancer” (Epizyme, Inc., priority 2017, dated 2022).

Legend:
Experiment in all cases: In vitro combination study with tazemetostat, cell proliferation (Cell Titer Glo)
NCI-H1299 = conditions: 7 days tazemetostat pre-treatment, 6 days co-treatment with second agent
NCI-H2122 = conditions: 7 days tazemetostat pre-treatment, 6 days co-treatment with second agent
Calu-6 = conditions: 7 days tazemetostat pre-treatment, 6 days co-treatment with second agent
NCI-H1703 = conditions: 7 days tazemetostat pre-treatment, 6 days co-treatment with second agent
NCI-H1573 = conditions: 7 days tazemetostat pre-treatment, 6 days co-treatment with second agent
NCI-H522 = conditions: 7 days tazemetostat pre-treatment, 6 days co-treatment with second agent
NCI-H1793 = conditions: 7 days tazemetostat pre-treatment, 6 days co-treatment with second agent
NCI-H838 = conditions: 7 days tazemetostat pre-treatment, 6 days co-treatment with second agent
NCI-H1993 = conditions: 7 days tazemetostat pre-treatment, 6 days co-treatment with second agent
A427 = conditions: A427; 7 days tazemetostat pre-treatment, 6 days co-treatment with second agent
NCI-H2110 = conditions: 7 days tazemetostat pre-treatment, 6 days co-treatment with second agent
NCI-H2030 = conditions: 7 days tazemetostat pre-treatment, 6 days co-treatment with second agent
HCC827 = conditions: 7 days tazemetostat pre-treatment, 6 days co-treatment with second agent
Calu-3 = conditions: 7 days tazemetostat pre-treatment, 6 days co-treatment with second agent
NCI-H23 = conditions: 7 days tazemetostat pre-treatment, 6 days co-treatment with second agent
NCI-H661 = conditions: 7 days tazemetostat pre-treatment, 6 days co-treatment with second agent
A549 = conditions: 7 days tazemetostat pre-treatment, 6 days co-treatment with second agent
NCI-H460 = conditions: 7 days tazemetostat pre-treatment, 6 days co-treatment with second agent

With `N.N.[Cl][Pt][Cl]` [Cisplatin, cisplatin] the “combinatorial effect with tazemetostat (Loewe volume class)” value (“combinatorial effect with tazemetostat” for short) (NCI-H1299) was “No eff”, the “combinatorial effect with tazemetostat” value (NCI-H2122) was “Anta. (volumes <−1 denoted “antagonism”)” and the “combinatorial effect with tazemetostat” value (Calu-6) was “Add. (A value between −1 and 1 denoted “additivity”)”. For the same molecule, the “combinatorial effect with tazemetostat” value (NCI-H1703) was “No eff”, the “combinatorial effect with tazemetostat” value (NCI-H1573) was “Add. (A value between −1 and 1 denoted “additivity”)” and the “combinatorial effect with tazemetostat” value (NCI-H522) was “Anta. (volumes <−1 denoted “antagonism”)”. For the same molecule, the “combinatorial effect with tazemetostat” value (NCI-H1793) was “No eff”, the “combinatorial effect with tazemetostat” value (NCI-H838) was “Add. (A value between −1 and 1 denoted “additivity”)” and the “combinatorial effect with tazemetostat” value (NCI-H1993) was “Syn. (Loewe volumes greater than 1 denoted “synergy”)”. The “combinatorial effect with tazemetostat” value (A427) was “Syn. (Loewe volumes greater than 1 denoted “synergy”)”, the “combinatorial effect with tazemetostat” value (NCI-H2110) was “Add. (A value between −1 and 1 denoted “additivity”)” and the “combinatorial effect with tazemetostat” value (NCI-H2030) was “Syn. (Loewe volumes greater than 1 denoted “synergy”)”. The “combinatorial effect with tazemetostat” value (HCC827) was “Add. (A value between −1 and 1 denoted “additivity”)”, the “combinatorial effect with tazemetostat” value (Calu-3) was “Syn. (Loewe volumes greater than 1 denoted “synergy”)” and the “combinatorial effect with tazemetostat” value (NCI-H23) was “Add. (A value between −1 and 1 denoted “additivity”)”. For the same molecule, the “combinatorial effect with tazemetostat” value (NCI-H661) was “Syn. (Loewe volumes greater than 1 denoted “synergy”)”, the “combinatorial effect with tazemetostat” value (A549) was “Syn. (Loewe volumes greater than 1 denoted “synergy”)” and the “combinatorial effect with tazemetostat” value (NCI-H460) was “Add. (A value between −1 and 1 denoted “additivity”)”.

In the case of `CC(=O)O[C@@]12CO[C@@H]1C[C@H](O)[C@@]1(C)C(=O)[C@H](O)C3=C(C)[C@@H](OC(=O)[C@H](O)[C@@H](NC(=O)OC(C)(C)C)c4ccccc4)C[C@@](O)([C@@H](OC(=O)c4ccccc4)[C@H]21)C3(C)C` [Docetaxel, docetaxel], the “combinatorial effect with tazemetostat” value (NCI-H1299) is reported as “Syn. (Loewe volumes greater than 1 denoted “synergy”)”, the “combinatorial effect with tazemetostat” value (NCI-H2122) is reported as “Add. (A value between −1 and 1 denoted “additivity”)” and the “combinatorial effect with tazemetostat” value (Calu-6) is reported as “Add. (A value between −1 and 1 denoted “additivity”)”. For the same molecule, the “combinatorial effect with tazemetostat” value (NCI-H1703) was “Add. (A value between −1 and 1 denoted “additivity”)”, the “combinatorial effect with tazemetostat” value (NCI-H1573) was “Add. (A value between −1 and 1 denoted “additivity”)” and the “combinatorial effect with tazemetostat” value (NCI-H522) was “Add. (A value between −1 and 1 denoted “additivity”)”. The “combinatorial effect with tazemetostat” value (NCI-H1793) was “Syn. (Loewe volumes greater than 1 denoted “synergy”)”, the “combinatorial effect with tazemetostat” value (NCI-H838) was “Add. (A value between −1 and 1 denoted “additivity”)” and the “combinatorial effect with tazemetostat” value (NCI-H1993) was “Add. (A value between −1 and 1 denoted “additivity”)”. For the same molecule, the “combinatorial effect with tazemetostat” value (A427) was “Syn. (Loewe volumes greater than 1 denoted “synergy”)”, the “combinatorial effect with tazemetostat” value (NCI-H2110) was “Add. (A value between −1 and 1 denoted “additivity”)” and the “combinatorial effect with tazemetostat” value (NCI-H2030) was “Syn. (Loewe volumes greater than 1 denoted “synergy”)”. For the same molecule, the “combinatorial effect with tazemetostat” value (HCC827) was “Add. (A value between −1 and 1 denoted “additivity”)”, the “combinatorial effect with tazemetostat” value (Calu-3) was “Syn. (Loewe volumes greater than 1 denoted “synergy”)” and the “combinatorial effect with tazemetostat” value (NCI-H23) was “Add. (A value between −1 and 1 denoted “additivity”)”. The “combinatorial effect with tazemetostat” value (NCI-H661) was “Syn. (Loewe volumes greater than 1 denoted “synergy”)”, the “combinatorial effect with tazemetostat” value (A549) was “Add. (A value between −1 and 1 denoted “additivity”)” and the “combinatorial effect with tazemetostat” value (NCI-H460) was “Syn. (Loewe volumes greater than 1 denoted “synergy”)”.

In the case of `Nc1ccn([C@@H]2O[C@H](CO)[C@@H](O)C2(F)F)c(=O)n1` [Gemcitabine, gemcitabine], the “combinatorial effect with tazemetostat” value (NCI-H1299) is reported as “Add. (A value between −1 and 1 denoted “additivity”)”, the “combinatorial effect with tazemetostat” value (NCI-H2122) is reported as “Add. (A value between −1 and 1 denoted “additivity”)” and the “combinatorial effect with tazemetostat” value (Calu-6) is reported as “Add. (A value between −1 and 1 denoted “additivity”)”. For the same molecule, the “combinatorial effect with tazemetostat” value (NCI-H1703) was “Add. (A value between −1 and 1 denoted “additivity”)”, the “combinatorial effect with tazemetostat” value (NCI-H1573) was “Add. (A value between −1 and 1 denoted “additivity”)” and the “combinatorial effect with tazemetostat” value (NCI-H522) was “Anta. (volumes <−1 denoted “antagonism”)”. For the same molecule, the “combinatorial effect with tazemetostat” value (NCI-H1793) was “Add. (A value between −1 and 1 denoted “additivity”)”, the “combinatorial effect with tazemetostat” value (NCI-H838) was “Add. (A value between −1 and 1 denoted “additivity”)” and the “combinatorial effect with tazemetostat” value (NCI-H1993) was “Add. (A value between −1 and 1 denoted “additivity”)”. The “combinatorial effect with tazemetostat” value (A427) was “Syn. (Loewe volumes greater than 1 denoted “synergy”)”, the “combinatorial effect with tazemetostat” value (NCI-H2110) was “Anta. (volumes <−1 denoted “antagonism”)” and the “combinatorial effect with tazemetostat” value (NCI-H2030) was “Add. (A value between −1 and 1 denoted “additivity”)”. For the same molecule, the “combinatorial effect with tazemetostat” value (HCC827) was “Add. (A value between −1 and 1 denoted “additivity”)”, the “combinatorial effect with tazemetostat” value (Calu-3) was “Add. (A value between −1 and 1 denoted “additivity”)” and the “combinatorial effect with tazemetostat” value (NCI-H23) was “Add. (A value between −1 and 1 denoted “additivity”)”. For the same molecule, the “combinatorial effect with tazemetostat” value (NCI-H661) was “Syn. (Loewe volumes greater than 1 denoted “synergy”)”, the “combinatorial effect with tazemetostat” value (A549) was “Add. (A value between −1 and 1 denoted “additivity”)” and the “combinatorial effect with tazemetostat” value (NCI-H460) was “Add. (A value between −1 and 1 denoted “additivity”)”.

With `C=CCn1c(=O)c2cnc(Nc3ccc(N4CCN(C)CC4)cc3)nc2n1-c1cccc(C(C)(C)O)n1` [MK-1775] the “combinatorial effect with tazemetostat” value (NCI-H1299) was “Add. (A value between −1 and 1 denoted “additivity”)”, the “combinatorial effect with tazemetostat” value (NCI-H2122) was “Add. (A value between −1 and 1 denoted “additivity”)” and the “combinatorial effect with tazemetostat” value (Calu-6) was “Syn. (Loewe volumes greater than 1 denoted “synergy”)”. The “combinatorial effect with tazemetostat” value (NCI-H1703) was “Syn. (Loewe volumes greater than 1 denoted “synergy”)”, the “combinatorial effect with tazemetostat” value (NCI-H1573) was “Syn. (Loewe volumes greater than 1 denoted “synergy”)” and the “combinatorial effect with tazemetostat” value (NCI-H522) was “Syn. (Loewe volumes greater than 1 denoted “synergy”)”. For the same molecule, the “combinatorial effect with tazemetostat” value (NCI-H1793) was “Syn. (Loewe volumes greater than 1 denoted “synergy”)”, the “combinatorial effect with tazemetostat” value (NCI-H838) was “Add. (A value between −1 and 1 denoted “additivity”)” and the “combinatorial effect with tazemetostat” value (NCI-H1993) was “Add. (A value between −1 and 1 denoted “additivity”)”. For the same molecule, the “combinatorial effect with tazemetostat” value (A427) was “Syn. (Loewe volumes greater than 1 denoted “synergy”)”, the “combinatorial effect with tazemetostat” value (NCI-H2110) was “Add. (A value between −1 and 1 denoted “additivity”)” and the “combinatorial effect with tazemetostat” value (NCI-H2030) was “Syn. (Loewe volumes greater than 1 denoted “synergy”)”. The “combinatorial effect with tazemetostat” value (HCC827) was “Add. (A value between −1 and 1 denoted “additivity”)”, the “combinatorial effect with tazemetostat” value (Calu-3) was “Add. (A value between −1 and 1 denoted “additivity”)” and the “combinatorial effect with tazemetostat” value (NCI-H23) was “Syn. (Loewe volumes greater than 1 denoted “synergy”)”. The “combinatorial effect with tazemetostat” value (NCI-H661) was “Syn. (Loewe volumes greater than 1 denoted “synergy”)”, the “combinatorial effect with tazemetostat” value (A549) was “Add. (A value between −1 and 1 denoted “additivity”)” and the “combinatorial effect with tazemetostat” value (NCI-H460) was “Add. (A value between −1 and 1 denoted “additivity”)”.
